Measured values as given in patent publication EP4810052A2, “HCRHR2 SELECTIVE POLYPEPTIDES” (Gubra A/S, priority 2023, dated 2026).
“Also recorded” adds a separate entry of the source. Like-named read-outs stand apart in the source and are kept apart here. Starred links: 1 amine or outer side, 2 acyl side, 3 side chain; linkers in the order of their positions; H or OH if unused. Non-standard residues stand in square brackets, D forms with d. Residues, ends and D or L forms follow the SMILES beside them. Groups on a side chain read outwards from the residue. *: point of attachment. C20 diacid = O=C(O)CCCCCCCCCCCCCCCCCCC(=O)*; γGlu = O=C(O)[C@H](CCC(=O)[*:2])N[*:1]; NMeI = CC[C@H](C)[C@H](NC)C(=O)O; Nle = CCCC[C@H](N)C(=O)O; AEEA = NCCOCCOCC(=O)O; Aib = CC(C)(N)C(=O)O

How the values were obtained:
mCRHR2 = molecular target: T1, mCRHR2 (Mus musculus, UniProt Q60748); experiment: cAMP potency, transiently transfected CHO-K1 cells, mCRHR2; assay type: cell-based; conditions: transiently transfected CHO-K1, average n=3; read-out: Transient cell system EC50 (nM) mCRH R2
T1 construct: DYK (FLAG); host or cells: CHO-K1, transiently transfected
Procedure: (§1) Selected peptides were tested for potency on different species (mouse, rat, porcine) using transiently transfected CHO-K1 cells using the general procedure.

PK in minipigs = conditions: male, Göttingen, minipig, in vivo; for half-life: iv, read-out: T½ (converted); for half-life / Cmax / Tmax: Pig; for bioavailability / Cmax / Tmax: sc; for Cmax / Tmax: 6.0 nmol/kg s.c
Procedure: Pharmacokinetics studies were determined in male Göttingen minipigs from Ellegaard Göttingen Minipigs A/S. Animals were acclimatised for at least 7 days before placed on study. The minipigs had prior to study been surgically implanted with central venous catheters inserted which were used for blood sampling. Animals were housed under a 12/12 h dark-light cycle with ad libitum access to domestic water and animals were fed a commercially standard maintenance diet twice daily.
Test compounds where administrated either as a cassette or as a single compound. Test compounds were administrated by a single intravenous injection or short infusion (5-10 min) through the implanted catheter or a single subcutaneously injection. The subcutaneously injection was given in the mid neck between ear and scapula with a stopper on the needle, allowing 0.5 cm of the needle to be inserted.Plasma concentration-time profiles employing 12-16 sampling points were obtained from each animal. As an example, blood samples were collected on the following times: 0 (predose), 0.17, 0.33, 0.5, 1, 2, 5, 6, 24, 48, 72, 92, 168, 240 and 336 hrs post administration. Approximately 2 mL blood was drawn from the central catheter from each animal at each sampling point. Blood samples were taken in K2 or K3 EDTA tubes. Blood was kept on ice for maximum 30 min before centrifugation (10 min, 4°C, 2000 x g). Approximately 200 µL plasma samples was transferred to a Micronic tube and stored at -20° or lower.
Pharmacokinetics parameters were calculated by non-compartmental analysis (NCA) of the individual plasma concentrations-time profile from the animals. The log-linear trapezoidal method was used for estimation of AUC and AUMC. The terminal T½ was determined as In(2)/λz where λz is the first order rate constant as determined by the terminal log-linear part of the curve.
Plasma concentrations were measured by LC-MSMS using electrospray ionization and multiple reaction monitoring. Calibration standards and quality control (QC) samples were prepared in specie match matrix. 15 µL calibration standards, QC and study samples were extracted by protein precipitation using 60 µL methanol followed by addition of 45 µL milliQ water. Samples were shaken (800 rpm) at room temperature for 5 min before centrifugation (2570×g, 40 min, 4°C) and the supernatant was transferred to a LoBind PCR plate. Samples were analysed on a Thermo Triscend UHPLC system coupled to a Sciex API 6500+ mass spectrometer. Samples were subject to online SPE clean-up on a HLB column (1×50 mm, Waters) before loaded onto a Aeris Peptide XB C18 column (3.6 µm, 100 Å, 2×50 mm, Phenomenex) analytical column. The mobile phases consisted of acetonitrile and milliQ H2O both containing 0.1% V/V formic acid. The flow rate was 0.60 mL/min and the column was kept at room temperature.

[1] = Body mass and body fat content in mouse model of diet-induced obesity (DIO); assay type: in vivo; conditions: DIO mice; for relative body weight: 28 days, compared to vehicle; for Blood HbA1c / M. Gastrocnemius / M. Soleus / Body weight at termination / Fat mass change from baseline / Lean mass change from baseline / Relative body weight change at termination: Table 17 study; for Body weight at termination / Fat mass change from baseline / Lean mass change from baseline / Relative body weight change at termination: ± SEM
Procedure: SEQ ID NO: 3, SEQ ID NO: 6, SEQ ID NO: 238, SEQ ID NO: 16 and SEQ ID NO: 215 were assessed for their ability to reduce body mass and body fat content in a mouse model of diet-induced obesity (DIO).
Male C57BL/6JRj mice were obtained from JanVier (JanVier Labs, France) at 5 weeks of age. The animals were group-housed during obesity induction and then single housed 2 weeks prior to study start. They were housed under a 12/12 h dark-light cycle, light off at 3 PM. Room temperature was controlled to 22°C ± 1°C, with 60 % ± 20% humidity. For 22-23 weeks prior to treatment start and throughout the study, the animals had ad libitum access to high-fat diet (60% kcal fat, D12492, Research Diets) and tap water.
The animals were randomized according to lean mass (EchoMRI) and body weight. Animals were dosed subcutaneously […] for 30-32 days. In study 1, the animals were dosed with vehicle or SEQ ID NO: 3 (10, 30, 60 or 100 nmol/kg). In study 2, the animals were dosed with vehicle or SEQ ID NO: 6 (10 or 30 nmol/kg), SEQ ID NO: 238 (10 or 30 nmol/kg), SEQ ID NO: 16 (10 or 30 nmol/kg), SEQ ID NO: 215 (10 or 30 nmol/kg) or SEQ ID NO: 3 (30 nmol/kg).
Body weight and food intake were recorded daily until day 28 and body composition evaluated on day 26 using EchoMRI. At termination, blood for HbA1c analyses were collected and M. gastrocnemius and M. soleus were weighed.
Statistical significance was evaluated using One-way analysis of variance with Dunnett's multiple comparison test. P < 0.05 was considered statistically significant.

pCRHR2 = experiment: cAMP potency, transiently transfected CHO-K1 cells, pCRHR2; assay type: cell-based, pig; conditions: transiently transfected CHO-K1, average n=3; read-out: Transient cell system EC50 (nM) pCR HR2
Procedure: as §1

T1 sequence (Q60748 1-431 isoform Q60748-2): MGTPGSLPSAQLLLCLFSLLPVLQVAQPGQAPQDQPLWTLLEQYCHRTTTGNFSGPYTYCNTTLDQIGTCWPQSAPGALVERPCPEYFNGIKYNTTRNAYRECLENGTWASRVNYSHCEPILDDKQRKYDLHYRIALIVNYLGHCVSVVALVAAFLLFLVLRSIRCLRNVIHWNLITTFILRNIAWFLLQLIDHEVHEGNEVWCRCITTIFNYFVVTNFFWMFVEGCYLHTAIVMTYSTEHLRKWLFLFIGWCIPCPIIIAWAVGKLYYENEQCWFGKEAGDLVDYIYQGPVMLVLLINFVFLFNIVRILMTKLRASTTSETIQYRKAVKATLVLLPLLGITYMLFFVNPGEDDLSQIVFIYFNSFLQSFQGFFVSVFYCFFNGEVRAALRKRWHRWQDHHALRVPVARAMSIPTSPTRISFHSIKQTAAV

Row | Structure (SMILES) | EC50 (mCRHR2) [nM] | bioavailability (PK in minipigs) [%] | Cmax (PK in minipigs) [nM] | Tmax (PK in minipigs) [h] | relative body weight [1] | Blood HbA1c ([1]; 10 nmol/kg) [%] | M. Gastrocnemius ([1]; 10 nmol/kg) [g] | M. Soleus ([1]; 10 nmol/kg) [g] | Body weight at termination ([1]; 10 nmol/kg) [g] | Fat mass change from baseline ([1]; 10 nmol/kg) [g] | Lean mass change from baseline ([1]; 10 nmol/kg) [g] | Relative body weight change at termination ([1]; 10 nmol/kg) [%] | Blood HbA1c ([1]; 30 nmol/kg) [%] | M. Gastrocnemius ([1]; 30 nmol/kg) [g] | M. Soleus ([1]; 30 nmol/kg) [g] | Body weight at termination ([1]; 30 nmol/kg) [g] | Fat mass change from baseline ([1]; 30 nmol/kg) [g] | Lean mass change from baseline ([1]; 30 nmol/kg) [g] | Relative body weight change at termination ([1]; 30 nmol/kg) [%] | EC50 (pCRHR2) [nM] | further results
1 | CCCC[C@H](NC(=O)[C@@H](NC(=O)[C@H](CCC(=O)O)NC(=O)[C@H](C)NC(=O)[C@H](CC(N)=O)NC(=O)C(C)(C)NC(=O)[C@H](CCCCNC(=O)COCCOCCNC(=O)COCCOCCNC(=O)CC[C@H](NC(=O)CC[C@H](NC(=O)CCCCCCCCCCCCCCCCCCC(=O)O)C(=O)O)C(=O)O)NC(=O)[C@H](C)NC(=O)[C@H](CCC(N)=O)NC(=O)[C@H](CCC(=O)O)NC(=O)[C@H](CCCNC(=N)N)NC(=O)[C@H](C)NC(=O)[C@H](C)NC(=O)[C@H](CCCNC(=N)N)NC(=O)[C@H](C)NC(=O)[C@H](CCCNC(=N)N)NC(=O)[C@H](C)NC(=O)[C@H](CCC(N)=O)NC(=O)[C@H](CO)NC(=O)[C@H](CC(C)C)NC(=O)[C@H](CC(C)C)NC(=O)[C@@H](NC(=O)[C@H](CCC(N)=O)NC(=O)[C@H](CC(C)C)NC(=O)[C@H](CC(C)C)NC(=O)CNC(=O)[C@@H](NC(=O)[C@@H]1CCCN1C(=O)[C@@H](NC(=O)[C@H](CC(=O)O)NC(=O)[C@H](CC(C)C)NC(=O)[C@H](CO)NC(=O)[C@H](CC(C)C)NC(=O)[C@@H](NC(=O)[C@@H]1CCCN1)C(C)C)C(C)C)[C@@H](C)CC)[C@@H](C)CC)[C@@H](C)CC)C(=O)N[C@@H](C)C(=O)N[C@@H](CCC(=O)O)C(=O)N[C@H](C(N)=O)C(C)C [SEQ ID NO: 238] (H-PVLSLDVPIGLLQILLSQARARAAREQAK([AEEA-AEEA-γGlu-γGlu-C20 diacid])[Aib]NAEI[Nle]AEV-NH2) | 0.0047 | 86 | 44 | 48 | prolonged dose-dependent reduction | 4.3 ± 0.04 | 0.18 ± 0.001 | 0.012 ± 0.0003 | 39.1 ± 0.7 | -9.5 ± 0.6 | -0.4 ± 0.2 | 82.3 ± 1.2 | 4.4 ± 0.1 | 0.18 ± 0.004 | 0.011 ± 0.0007 | 37.4 ± 0.9 | -10.7 ± 0.3 | -0.7 ± 0.3 | 77.9 ± 0.7 | 0.015 | half-life (PK in minipigs; 5.8 nmol/kg i.v.): 212 h
2 | CC[C@H](C)[C@H](NC)C(=O)N[C@H](C(=O)N[C@@H](CC(C)C)C(=O)N[C@@H](CO)C(=O)N[C@@H](CC(C)C)C(=O)N[C@@H](CC(=O)O)C(=O)N[C@H](C(=O)N1CCC[C@H]1C(=O)N[C@H](C(=O)NCC(=O)N[C@@H](CC(C)C)C(=O)N[C@@H](CC(C)C)C(=O)N[C@@H](CCC(N)=O)C(=O)N[C@H](C(=O)N[C@@H](CC(C)C)C(=O)N[C@@H](CC(C)C)C(=O)N[C@@H](CCC(=O)O)C(=O)N[C@@H](CCC(N)=O)C(=O)N[C@@H](C)C(=O)N[C@@H](CCCNC(=N)N)C(=O)N[C@@H](C)C(=O)N[C@@H](CCCNC(=N)N)C(=O)N[C@@H](C)C(=O)N[C@@H](C)C(=O)N[C@@H](CCCNC(=N)N)C(=O)N[C@@H](CCC(=O)O)C(=O)N[C@@H](CCC(N)=O)C(=O)N[C@@H](C)C(=O)N[C@@H](CCCCNC(=O)COCCOCCNC(=O)COCCOCCNC(=O)CC[C@H](NC(=O)CC[C@H](NC(=O)CCCCCCCCCCCCCCCCCCC(=O)O)C(=O)O)C(=O)O)C(=O)N[C@H](C(=O)N[C@@H](CC(N)=O)C(=O)NC(C)(C)C(=O)N[C@@H](CCC(=O)O)C(=O)N[C@H](C(=O)N[C@@H](CC(C)C)C(=O)N[C@@H](C)C(=O)N[C@@H](CCC(=O)O)C(=O)N[C@H](C(N)=O)C(C)C)[C@@H](C)CC)[C@@H](C)O)[C@@H](C)CC)[C@@H](C)CC)C(C)C)C(C)C [SEQ ID NO: 16] (H-[NMeI]VLSLDVPIGLLQILLEQARARAAREQAK([AEEA-AEEA-γGlu-γGlu-C20 diacid])TN[Aib]EILAEV-NH2) | 0.0049 | 66 | 35 | 48 | reduce body weight; also recorded: prolonged dose-dependent reduction | 4.4 ± 0.1 | 0.19 ± 0.003 | 0.013 ± 0.0004 | 44 ± 1.1 | -5.6 ± 0.5 | 0.6 ± 0.3 | 91.1 ± 1.2 | 4.1 ± 0.1 | 0.19 ± 0.002 | 0.013 ± 0.0009 | 38.3 ± 0.9 | -10.5 ± 0.6 | -0.6 ± 0.3 | 79.9 ± 1.4 | 0.028 | half-life (PK in minipigs; 4.6 nmol/kg i.v.): 208 h
